Results on 6 molecules are retold here after US20070135375A1, “Sulfamoyl sulfonate prodrugs” (priority 2005, published 2007).

Like-named read-outs stand apart in the source and are kept apart here.

Series [1] has as its target human carbonic anhydrase I (Homo sapiens, UniProt P00915). Kind of series: Carbonic anhydrase inhibition, photometric, nitrophenyl acetate conversion (CA I). The series is classed as biochemical. The text has this:
(§1) Photometric determination of the inhibition of human carbonic anhydrase I or II with sulfonamides or sulfamates on microtiter plates with the aid of enzymatic conversion of nitrophenyl acetate with a color change from colorless to yellow.

Series [2] in a line: Hydrolysis in aqueous buffer of various pH values at 37° C., HPLC. The series is classed as physicochemical. On the procedure: The compounds according to the invention were measured as a DMSO solution in an aqueous buffer of various pH values at 37° C.
The quantification took place through HPLC (HPLC column: Xterra MS C18 2.5 μm 4.6×30 mm). Based on the test substances to be measured, the following gradient system was used for the HPLC: • Acidic gradient: A: water/0.01% trifluoroacetic acid, B: acetonitrile/0.01% trifluoroacetic acid—0 min 5% B, 0-3 min 65% B, 3-5 min 65% B, 5-6 min 5% B • Alkaline gradient: A: water/0.025% ammonia, B: acetonitrile/0.025% ammonia—0 min 20% B, 0-3 min 80% B, 3-5 min 80% B, 5-6 min 20% B. The quantification took place after 1 and 2 hours and after 24 hours.

For series [3], the target named is human carbonic anhydrase II (Homo sapiens, UniProt P00918). Kind of series: Carbonic anhydrase inhibition, photometric, nitrophenyl acetate conversion (CA II). The series is classed as biochemical.
From the text: as §1

A short description of series [4]: Solubility in water (kinetic nephelometry / thermodynamic HPLC). The class given is physicochemical. The settings on record: for solubility: 25 °C, aqueous buffer. On the procedure: The compounds according to the invention were measured as 10 mmol DMSO solution in a 0.01 M phosphate buffer solution at pH 7.4 and 25° C. with nephelometry and turbidity.
While in a turbid state, the solution to be tested was added drop by drop to the buffer solution until a precipitate settled.
The precipitate was detected in a dilution series (compounds in a phosphate buffer solution according to the invention) by nephelometry.
b.) Thermodynamic Measurement:
The compounds in solid form according to the invention were added to an excess of an aqueous buffer system of various pH values. It was stirred 24 hours at 25° C. After centrifuging, the solution was examined with HPLC (HPLC: column: Xterra MS C18 2.5 μm, 30×4.6 mm).

Series [5] can be described thus: Stability in simulated gastric juice (NaCl solution with pepsin, pH~1.2), HPLC. The series is classed as physicochemical. Conditions: 30 min, 37° C., column head pH = 1, cells note pH = 1.2 (gastric juice). On the procedure: The quantification took place through HPLC (HPLC column: Xterra MS C18 2.5 μm 4.6×30 mm). Based on the test substances to be measured, the following gradient system was used for the HPLC: • Acidic gradient: A: water/0.01% trifluoroacetic acid, B: acetonitrile/0.01% trifluoroacetic acid—0 min 5% B, 0-3 min 65% B, 3-5 min 65% B, 5-6 min 5% B • Alkaline gradient: A: water/0.025% ammonia, B: acetonitrile/0.025% ammonia—0 min 20% B, 0-3 min 80% B, 3-5 min 80% B, 5-6 min 20% B. The quantification took place after 1 and 2 hours and after 24 hours. Stability in Simulated Gastric Juice:
Solutions of the compounds according to the invention were incubated at 37° C. in simulated gastric juice (aqueous NaCl solution with pepsin, pH˜1.2).
The quantification took place through HPLC (HPLC-column: Xterra MS C18 2.5 μm 4.6×30 mm) using the gradient system: […]
A: water/0.01% trifluoroacetic acid, B: acetonitrile/0.01% trifluoroacetic acid—0 min 5% B, 0-3 min 65% B, 3-5 min 65% B, 5-6 min 5% B.
The quantification took place after 0.5, 1, 1.5 and 2 hours.

The mark [6] stands for this setting: human carbonic anhydrase I, read-out: CA I IC50.
Where [7] appears, read: human carbonic anhydrase II, read-out: CA II IC50.

Chain of human carbonic anhydrase I (P00915 whole entry): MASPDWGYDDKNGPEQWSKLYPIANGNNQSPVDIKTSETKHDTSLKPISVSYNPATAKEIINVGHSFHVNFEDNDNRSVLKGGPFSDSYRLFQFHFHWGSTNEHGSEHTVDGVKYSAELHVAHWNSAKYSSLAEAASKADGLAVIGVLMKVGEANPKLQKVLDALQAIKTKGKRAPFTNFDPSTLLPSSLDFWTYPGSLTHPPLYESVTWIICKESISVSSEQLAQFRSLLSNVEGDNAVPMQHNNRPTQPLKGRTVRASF

As for `C[C@@H]1CC2=CC(=O)CC[C@]2(C)[C@H]2CC[C@]3(C)[C@@H](OS(=O)(=O)c4cccc(S(N)(=O)=O)c4)CC[C@H]3[C@H]12` [3-oxo-7α-methylandrost-4-en-17β-yl 3′-sulfamoylphenyl sulfonate], the IC50 was 2300 nM in series [1] (setting [6]) and 120 nM in series [3] (setting [7]). The Decomposition in % in series [2] (pH = 1, 37° C., 1 h) amounted to 6%; in series [2] (pH = 1, 37° C., 2 h), 11%; in series [2] (pH = 1, 37° C., 24 h), 71%; in series [2] (pH = 7.4, 37° C., 1 h), 6%; in series [2] (pH = 7.4, 37° C., 2 h) it was 11%; in series [2] (pH = 7.4, 37° C., 24 h), 70%. In addition, in series [4], the “Solubility in Water” value is listed as “About 6 mg/l”.
Take `C[C@]12CC[C@@H]3c4ccc(O)cc4CC[C@H]3[C@@H]1CC[C@@H]2OS(=O)(=O)c1cccc(S(N)(=O)=O)c1` [3-Hydroxyestra-1,3,5(10)-trien-17β-yl 3′-sulfamoylphenyl Sulfonate]: the IC50 is 1700 nM in series [1] (setting [6]) and 81 nM in series [3] (setting [7]). Also, the Decomposition in % turned out to be 7% in series [2] (pH = 1, 37° C., 1 h); 14% in series [2] (pH = 1, 37° C., 2 h); 80% in series [2] (pH = 1, 37° C., 24 h); 6% in series [2] (pH = 7.4, 37° C., 1 h); 13% in series [2] (pH = 7.4, 37° C., 2 h); 84% in series [2] (pH = 7.4, 37° C., 24 h). For the same molecule, the Decomposition in % in series [5] is given as 4%. Besides, the solubility in series [4] amounted to 3 µg/mL.
In the case of `C[C@]12CC[C@H]3[C@@H](CCC4=CC(=O)CC[C@@]43C)[C@@H]1CC[C@@H]2OS(=O)(=O)c1cccc(S(N)(=O)=O)c1` [3-Oxo-androst-4-en-17β-yl 3′-sulfamoylphenyl Sulfonate], the half-maximal inhibitory concentration (IC50) in series [1] came to 2300 nM; in series [3], 120 nM. The Decomposition in % in series [2] (pH = 1, 37° C., 1 h) was determined as 6%; in series [2] (pH = 1, 37° C., 2 h) it was 11%; in series [2] (pH = 1, 37° C., 24 h), 78%; in series [2] (pH = 7.4, 37° C., 1 h), 6%; in series [2] (pH = 7.4, 37° C., 2 h), 12%; in series [2] (pH = 7.4, 37° C., 24 h), 75%. The molecule also gave a Decomposition in % in series [5] of 3%. This molecule also had a solubility in series [4] of 5 µg/mL.
For the molecule `C[C@]12CC[C@@H]3c4ccc(OS(N)(=O)=O)cc4CC[C@H]3[C@@H]1CC[C@@H]2O` [Estradiol-3-sulfamat, Estradiol-3-sulfamate, reference compound], the IC50 in series [1] (setting [6]) is 157 ± 10.6 nM; in series [3] (setting [7]) it was 34 nM.
With “Zidovudine-sulfamoylphenyl Sulfonate [Zidovudinsulfonat]”, the half-inhibitory concentration (IC50) in series [1] (setting [6]) turned out to be 2900 nM; in series [3] (setting [7]), 1100 nM.
For `CCC(=O)O[C@H]1CC[C@H]2[C@@H]3CCC4=CC(=O)CC[C@]4(C)[C@H]3CC[C@]12C` [Testosterone Propionate, 3-Oxoandrost-4-en-17β-yl n-propionate, reference compound], the Decomposition in % in series [2] (pH = 1, 37° C., 1 h) was found to be 0%; in series [2] (pH = 1, 37° C., 2 h), 0%; in series [2] (pH = 1, 37° C., 24 h) it was 0%; in series [2] (pH = 7.4, 37° C., 1 h), 0%; in series [2] (pH = 7.4, 37° C., 2 h), 0%; in series [2] (pH = 7.4, 37° C., 24 h), 0%. The same molecule gave a Decomposition in % in series [5] of 0%. The “Solubility in Water (in words)” value in series [4] is given as “insoluble”.

The IC50 is the concentration at which inhibition is half-maximal. As usually defined, the solubility is how much of the substance goes into solution per volume. Higher therefore signals much dissolved substance.
